Values joined by “and” are separate entries in the source; they are usually repeats but may differ in a detail not shown here. Equal values may be shown once. Read-outs that look alike come from different tables or passages of the source.
Key:
Format in all cases: cell-based
[1] = tested on: HT29; test: cells; conditions: Homo sapiens, HT-29; HT29, 72 hours treatment, SRB
From the text: (§1) Evaluation of Cytotoxic Activity Using the SRB and the MTT Colorimetric Assays

[2] = tested on: MDA-MB-231; test: cells; conditions: Homo sapiens; MDA-MB-231, 72 hours treatment, SRB
From the text: as §1

[3] = tested on: SK-BR-3 (HER2+); test: In vitro cytotoxicity of ADCs and related reagents, SRB assay; conditions: Homo sapiens
Protocol: (§2) Sulforhodamine B colorimetric assay for cytotoxicity screening. […] Briefly, cells were seeded in 96-well microtiter plates and allowed to stand for 24 hours in drug-free medium before treatment with vehicle alone or with the tested substances for 72 hours.
(§3) Cell survival was expressed as percentage of control, untreated cell survival.

[4] = tested on: MCF-7 (HER2−); test: as above; conditions: Homo sapiens, MCF7
Protocol: as §2, §3

[5] = tested on: MDA-MB-231 (HER2−); test: as above; conditions: Homo sapiens
Protocol: as §2, §3

[6] = tested on: HCC-1954 (HER2+); test: as above; conditions: Homo sapiens, HCC1954
Protocol: as §2, §3

[7] = tested on: SK-BR-3, HCC-1954, MDA-MB-231 and MCF-7 cells; test: In vitro cytotoxicity across the HER2 breast cancer cell panel and HER2 selectivity; conditions: Homo sapiens
Protocol: For SK-BR-3, HCC-1954, MDA-MB-231 and MCF-7 cells, a colorimetric assay using Sulforhodamine B (SRB) was adapted for quantitative measurement of cell growth and cytotoxicity, as described in V. Vichai and K. Kirtikara. Sulforhodamine B colorimetric assay for cytotoxicity screening. Nature Protocols, 2006, 1, 1112-1116. Briefly, cells were seeded in 96-well microtiter plates and allowed to stand for 24 hours in drug-free medium before treatment with vehicle alone or with the tested substances for 72 hours.
as §3
Standard dose-response (DR) curves for 72 hours incubation with the tested substances were performed.

[8] = SK-BR-3, HER2 positive, 72 hours, read-out: IC50
[9] = MCF-7, HER2 negative, 72 hours, read-out: IC50
[10] = MDA-MB-231, HER2 negative, 72 hours, read-out: IC50
[11] = HCC-1954, HER2 positive, 72 hours, read-out: IC50
[12] = read-out: IC50 values, range over the four cell lines
[13] = read-out: geometric mean IC50 value across the whole cell panel

## COc1c(C)cc2c(c1O)[C@@H]1[C@@H]3[C@@H]4SC[C@]5(N[C@@H](CN)Cc6c5oc5ccccc65)C(=O)OC[C@@H](c5c6c(c(C)c(OC(C)=O)c54)OCO6)N3[C@@H](C#N)[C@H](C2)N1C [46-R]
[1]
  IC (TGI): 1.39 nM
[2]
  IC (TGI): 1.39 nM

## COc1c(C)cc2c(c1O)[C@@H]1[C@@H]3[C@@H]4SC[C@]5(N[C@@H](CNC(=O)OCc6ccc(NC(=O)[C@H](CCCNC(N)=O)NC(=O)[C@@H](NC(=O)CCCCCN7C(=O)C=CC7=O)C(C)C)cc6)Cc6c5[nH]c5ccccc65)C(=O)OC[C@@H](c5c6c(c(C)c(OC(C)=O)c54)OCO6)N3[C@@H](C#N)[C@H](C2)N1C [DL 1]
[3]; [8]
  IC50: 0.116 µg/mL and 83.1 nM
[4]; [9]
  IC50: 0.433 µg/mL and 311 nM
[5]; [10]
  IC50: 0.0728 µg/mL and 52.3 nM
[6]; [11]
  IC50: 0.18 µg/mL and 129 nM
[7]; [12]
  IC50: 0.07 µg/mL to 0.43 µg/mL and 52.3 nM to 311 nM
[7]; [13]
  IC50: 0.16 µg/mL and 115 nM

## COc1c(C)cc2c(c1O)[C@@H]1[C@@H]3[C@@H]4SC[C@]5(N[C@@H](CNC(=O)OCc6ccc(NC(=O)[C@H](CCCNC(N)=O)NC(=O)[C@@H](NC(=O)CCOCCOCCOCCOCCNC(=O)CCN7C(=O)C=CC7=O)C(C)C)cc6)Cc6c5[nH]c5ccccc65)C(=O)OC[C@@H](c5c6c(c(C)c(OC(C)=O)c54)OCO6)N3[C@@H](C#N)[C@H](C2)N1C [DL 2]
[3]; [8]
  IC50: 0.2 µg/mL and 125 nM
[4]; [9]
  IC50: 0.469 µg/mL and 294 nM
[5]; [10]
  IC50: 0.2 µg/mL and 125 nM
[6]; [11]
  IC50: 0.31 µg/mL and 194 nM
[7]; [12]
  IC50: 0.2 µg/mL to 0.47 µg/mL and 125 nM to 294 nM
[7]; [13]
  IC50: 0.28 µg/mL and 173 nM

## COc1c(C)cc2c(c1O)[C@@H]1[C@@H]3[C@@H]4SC[C@]5(N[C@@H](CNC(=O)OCc6ccc(NC(=O)[C@H](C)NC(=O)[C@@H](NC(=O)CCOCCOCCOCCOCCNC(=O)CCN7C(=O)C=CC7=O)C(C)C)cc6)Cc6c5[nH]c5ccccc65)C(=O)OC[C@@H](c5c6c(c(C)c(OC(C)=O)c54)OCO6)N3[C@@H](C#N)[C@H](C2)N1C [DL 3]
[3]; [8]
  IC50: 0.16 µg/mL and 106 nM
[4]; [9]
  IC50: 0.279 µg/mL and 185 nM
[5]; [10]
  IC50: 0.15 µg/mL and 99.3 nM
[6]; [11]
  IC50: 0.24 µg/mL and 159 nM
[7]; [12]
  IC50: 0.15 µg/mL to 0.28 µg/mL and 99.3 nM to 185 nM
[7]; [13]
  IC50: 0.2 µg/mL and 133 nM

## COc1c(C)cc2c(c1O)[C@@H]1[C@@H]3[C@@H]4SC[C@]5(N[C@@H](CNC(=O)OCc6ccc(NC(=O)[C@H](C)NC(=O)[C@@H](NC(=O)CCOCCOCCOCCOCCNC(=O)CCN7C(=O)C=CC7=O)C(C)C)cc6)Cc6c5[nH]c5ccccc65)C(=O)OC[C@@H](c5c6c(c(C)c(OC(C)=O)c54)OCO6)N3[C@@H](O)[C@H](C2)N1C [DL 5]
[3]; [8]
  IC50: 0.0981 µg/mL and 65.3 nM
[4]; [9]
  IC50: 0.17 µg/mL and 113 nM
[5]; [10]
  IC50: 0.0981 µg/mL and 65.3 nM
[6]; [11]
  IC50: 0.191 µg/mL and 127 nM
[7]; [12]
  IC50: 0.1 µg/mL to 0.19 µg/mL and 65.3 nM to 127 nM
[7]; [13]
  IC50: 0.13 µg/mL and 88.4 nM

## COc1c(C)cc2c(c1O)[C@@H]1[C@@H]3[C@@H]4SC[C@]5(N[C@@H](CNC(=O)OCc6ccc(NC(=O)[C@H](CCCNC(N)=O)NC(=O)[C@@H](NC(=O)CCCCCN7C(=O)C=CC7=O)C(C)C)cc6)Cc6c5[nH]c5ccccc65)C(=O)OC[C@@H](c5c6c(c(C)c(OC(C)=O)c54)OCO6)N3[C@@H](O)[C@H](C2)N1C [DL 6]
[3]; SK-BR-3 cells, 72 hours incubation, read-out: IC50 SK-BR-3 (HER2 positive)
  IC50: 0.0709 µg/mL and 51.3 nM
[4]; MCF-7 cells, 72 hours incubation, read-out: IC50 MCF-7 (HER2 negative)
  IC50: 0.273 µg/mL and 197 nM
[5]; MDA-MB-231 cells, 72 hours incubation, read-out: IC50 MDA-MB-231 (HER2 negative)
  IC50: 0.0429 µg/mL and 31 nM
[6]; HCC-1954 cells, 72 hours incubation, read-out: IC50 HCC-1954 (HER2 positive)
  IC50: 0.171 µg/mL and 124 nM
[7]; [12]
  IC50: 0.04 µg/mL to 0.3 µg/mL and 31 nM to 197 nM
[7]; [13]
  IC50: 0.11 µg/mL and 78.9 nM

Source: patent US12653900B2, “Antibody drug conjugates comprising ecteinascidin derivatives” (PHARMA MAR, S.A., priority 2018, dated 2026)
